Source: US8410112B2, “Compounds useful as inhibitors of ATR kinase” (Vertex Pharmaceuticals Incorporated, priority 2008, dated 2013)

Molecular target: T1, full-length ATR (Homo sapiens, UniProt Q13535)
T1 construct: in the presence of 5 nM full-length ATR
Assay: ATR Inhibition Assay (radioactive-phosphate incorporation)
Assay type: biochemical
Conditions: Ki(app); 5 nM full-length ATR, 10 μM ATP, 800 μM target peptide, 25° C.
How it was run: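 After a 10-min pre-incubation of compound with 5 nM enzyme at 25 °C, ATP was added to start the reaction (final 10 μM [γ-33P]ATP, 800 μM peptide; Tris/HCl pH 7.5, MgCl2, DTT), which ran 24 h. Incorporated 33P was captured on phosphocellulose filters, and Ki(app) was fitted by non-linear regression.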

T1 sequence (Q13535 whole entry): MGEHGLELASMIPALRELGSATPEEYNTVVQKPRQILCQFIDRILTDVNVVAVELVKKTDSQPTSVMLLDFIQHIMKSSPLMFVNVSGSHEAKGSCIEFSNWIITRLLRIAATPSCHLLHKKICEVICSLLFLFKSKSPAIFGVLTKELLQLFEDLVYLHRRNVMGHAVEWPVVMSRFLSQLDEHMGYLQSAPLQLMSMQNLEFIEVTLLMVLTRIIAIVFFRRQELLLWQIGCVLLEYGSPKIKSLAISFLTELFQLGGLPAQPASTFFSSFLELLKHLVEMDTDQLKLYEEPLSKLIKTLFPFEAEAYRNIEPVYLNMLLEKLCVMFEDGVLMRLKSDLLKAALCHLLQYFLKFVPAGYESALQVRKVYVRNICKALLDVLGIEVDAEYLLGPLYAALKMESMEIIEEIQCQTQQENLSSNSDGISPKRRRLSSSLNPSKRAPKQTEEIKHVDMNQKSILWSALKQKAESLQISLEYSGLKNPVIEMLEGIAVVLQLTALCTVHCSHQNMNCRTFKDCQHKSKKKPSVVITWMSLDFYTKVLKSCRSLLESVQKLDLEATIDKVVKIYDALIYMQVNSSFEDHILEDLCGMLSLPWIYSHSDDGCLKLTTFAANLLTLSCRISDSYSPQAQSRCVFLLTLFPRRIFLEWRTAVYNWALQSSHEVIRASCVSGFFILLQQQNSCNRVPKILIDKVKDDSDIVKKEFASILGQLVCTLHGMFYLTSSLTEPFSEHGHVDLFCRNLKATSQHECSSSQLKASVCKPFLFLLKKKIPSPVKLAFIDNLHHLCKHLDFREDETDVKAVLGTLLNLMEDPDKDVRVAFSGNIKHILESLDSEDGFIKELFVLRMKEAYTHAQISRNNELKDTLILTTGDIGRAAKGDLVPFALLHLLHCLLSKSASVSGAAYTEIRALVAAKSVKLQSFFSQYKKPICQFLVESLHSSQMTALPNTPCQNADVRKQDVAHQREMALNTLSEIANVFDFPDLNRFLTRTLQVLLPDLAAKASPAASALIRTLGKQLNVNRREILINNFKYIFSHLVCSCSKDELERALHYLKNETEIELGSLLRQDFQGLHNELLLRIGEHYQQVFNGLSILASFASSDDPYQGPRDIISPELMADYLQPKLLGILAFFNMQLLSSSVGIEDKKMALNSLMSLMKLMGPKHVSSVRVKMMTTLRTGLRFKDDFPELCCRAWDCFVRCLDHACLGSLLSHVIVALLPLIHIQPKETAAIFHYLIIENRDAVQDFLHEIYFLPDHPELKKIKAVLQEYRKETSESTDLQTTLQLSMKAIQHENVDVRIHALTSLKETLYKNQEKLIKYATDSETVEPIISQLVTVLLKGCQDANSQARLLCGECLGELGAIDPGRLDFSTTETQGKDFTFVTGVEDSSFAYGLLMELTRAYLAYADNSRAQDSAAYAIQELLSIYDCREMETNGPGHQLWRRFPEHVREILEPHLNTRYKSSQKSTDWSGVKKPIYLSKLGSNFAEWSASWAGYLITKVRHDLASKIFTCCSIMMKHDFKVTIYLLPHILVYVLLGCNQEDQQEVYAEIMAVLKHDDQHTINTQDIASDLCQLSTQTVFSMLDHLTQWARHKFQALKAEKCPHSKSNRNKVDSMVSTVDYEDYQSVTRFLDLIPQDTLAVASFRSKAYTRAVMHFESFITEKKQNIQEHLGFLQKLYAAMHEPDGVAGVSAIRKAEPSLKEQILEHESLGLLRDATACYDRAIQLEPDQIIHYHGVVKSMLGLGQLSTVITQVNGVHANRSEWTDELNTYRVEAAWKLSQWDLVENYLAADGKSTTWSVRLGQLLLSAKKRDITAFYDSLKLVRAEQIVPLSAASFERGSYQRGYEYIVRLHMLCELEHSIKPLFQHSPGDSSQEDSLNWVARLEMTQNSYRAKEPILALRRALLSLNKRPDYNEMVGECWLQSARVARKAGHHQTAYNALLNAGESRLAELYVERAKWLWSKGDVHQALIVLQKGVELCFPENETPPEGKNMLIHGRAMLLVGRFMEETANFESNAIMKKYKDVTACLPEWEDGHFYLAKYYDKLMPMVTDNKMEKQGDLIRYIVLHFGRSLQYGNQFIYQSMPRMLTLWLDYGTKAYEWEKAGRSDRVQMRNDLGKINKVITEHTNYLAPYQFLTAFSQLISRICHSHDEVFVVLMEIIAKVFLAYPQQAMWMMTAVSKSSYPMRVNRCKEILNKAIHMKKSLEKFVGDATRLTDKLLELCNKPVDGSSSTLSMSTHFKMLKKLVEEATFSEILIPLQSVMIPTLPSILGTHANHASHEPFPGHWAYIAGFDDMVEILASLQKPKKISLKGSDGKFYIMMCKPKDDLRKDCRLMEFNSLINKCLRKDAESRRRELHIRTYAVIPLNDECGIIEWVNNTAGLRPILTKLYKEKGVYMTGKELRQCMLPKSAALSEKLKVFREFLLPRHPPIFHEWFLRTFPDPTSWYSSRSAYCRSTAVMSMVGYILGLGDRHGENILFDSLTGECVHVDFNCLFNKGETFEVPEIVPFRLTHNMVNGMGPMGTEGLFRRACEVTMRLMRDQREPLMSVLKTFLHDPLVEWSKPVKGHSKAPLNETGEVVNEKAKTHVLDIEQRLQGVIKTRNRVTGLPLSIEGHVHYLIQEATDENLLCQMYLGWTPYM

Ki	SMILES
100 to 1000 nM	Nc1ncc(C2=CCN(C(=O)Cc3ccccc3)CC2)nc1-c1nc2ccccc2[nH]1 [Compound I-213, 1-(4-(5-amino-6-(1H-benzo[d]imidazol-2-yl)pyrazin-2-yl)-5,6-dihydropyridin-1(2H)-yl)-2-phenylethanone]
1000 to 10000 nM	COCCOCC(=O)N[C@H]1CCN(c2cnc(N)c(-c3nc4ccccc4[nH]3)n2)C1 [Compound I-181, (S)-N-(1-(5-amino-6-(1H-benzo[d]imidazol-2-yl)pyrazin-2-yl)pyrrolidin-3-yl)-2-(2-methoxyethoxy)ethanamide]
100 to 1000 nM	Nc1ncc(N2CCN(S(=O)(=O)c3ccoc3)CC2)nc1-c1nc2ccccc2[nH]1 [Compound I-269, 3-(1H-benzo[d]imidazol-2-yl)-5-(4-(furan-3-ylsulfonyl)piperazin-1-yl)pyrazin-2-amine]
< 100 nM	CCS(=O)(=O)N1CC=C(c2cnc(N)c(-c3nc4ccc(F)c(F)c4[nH]3)n2)CC1 [Compound I-153, 3-(6,7-difluoro-1H-benzo[d]imidazol-2-yl)-5-(1-(ethylsulfonyl)-1,2,3,6-tetrahydropyridin-4-yl)pyrazin-2-amine]
1000 to 10000 nM	Cc1ccc2nc(-c3nc(N4CCC(CO)CC4)cnc3N)[nH]c2c1 [Compound I-2, (1-(5-amino-6-(6-methyl-1H-benzo[d]imidazol-2-yl)pyrazin-2-yl)piperidin-4-yl)methanol]
100 to 1000 nM	Nc1ncc(C2=CCN(C(=O)CCC(=O)O)CC2)nc1-c1nc2ccccc2[nH]1 [Compound I-324, 4-(4-(5-Amino-6-(1H-benzo[d]imidazol-2-yl)pyrazin-2-yl)-5,6-dihydropyridin-1(2H)-yl)-4-oxobutanoic acid]
100 to 1000 nM	Nc1ncc(N2CCN(S(=O)(=O)c3ccsc3)CC2)nc1-c1nnc(-c2ccccc2)o1 [Compound I-98, 3-(5-phenyl-1,3,4-oxadiazol-2-yl)-5-(4-(thiophen-3-ylsulfonyl)piperazin-1-yl)pyrazin-2-amine]
1000 to 10000 nM	Nc1ncc(N2CCNCC2)nc1-c1nnc(-c2ccccc2)o1 [Compound I-37, 3-(5-phenyl-1,3,4-oxadiazol-2-yl)-5-(piperazin-1-yl)pyrazin-2-amine]
100 to 1000 nM	CNCc1ccc(-c2nnc(-c3nc(N4C[C@@H]5[C@H](C4)[C@@H]5NS(=O)(=O)C(C)C)cnc3N)o2)cc1 [Compound I-370, N-[(1S,5R)-3-[5-Amino-6-[5-[4-(methylaminomethyl)phenyl]-1,3,4-oxadiazol-2-yl]pyrazin-2-yl]-3-azabicyclo[3.1.0]hexan-6-yl]propane-2-sulfonamide]
1000 to 10000 nM	CCS(=O)(=O)N1CC=C(c2cnc(N)c(-c3nc4cc(C(C)(C)C)ccc4[nH]3)n2)CC1 [Compound I-156, 3-(5-tert-butyl-1H-benzo[d]imidazol-2-yl)-5-(1-(ethylsulfonyl)-1,2,3,6-tetrahydropyridin-4-yl)pyrazin-2-amine]
100 to 1000 nM	Nc1ncc(C2=CCNCC2)nc1-c1nnc(-c2ccccc2)o1 [Compound I-41, 3-(5-phenyl-1,3,4-oxadiazol-2-yl)-5-(1,2,3,6-tetrahydropyridin-4-yl)pyrazin-2-amine]
100 to 1000 nM	CCS(=O)(=O)NC1CN(c2cnc(N)c(-c3nnc(-c4ccccc4)o3)n2)C1 [Compound I-302, N-[1-[5-amino-6-(5-phenyl-1,3,4-oxadiazol-2-yl)pyrazin-2-yl]azetidin-3-yl]ethanesulfonamide]
1000 to 10000 nM	Cc1ccc2nc(-c3nc(N4CCNC(=O)CC4)cnc3N)[nH]c2c1 [Compound I-65, 1-(5-amino-6-(6-methyl-1H-benzo[d]imidazol-2-yl)pyrazin-2-yl)-1,4-diazepan-5-one]
< 100 nM	NCCCS(=O)(=O)N1CC=C(c2cnc(N)c(-c3nc4ccccc4[nH]3)n2)CC1 [Compound I-331, 5-(1-(3-aminopropylsulfonyl)-1,2,3,6-tetrahydropyridin-4-yl)-3-(1H-benzo[d]imidazol-2-yl)pyrazin-2-amine]
1000 to 10000 nM	COCC(=O)N[C@H]1CCN(c2cnc(N)c(-c3nc4ccccc4[nH]3)n2)C1 [Compound I-182, (S)-N-(1-(5-amino-6-(1H-benzo[d]imidazol-2-yl)pyrazin-2-yl)pyrrolidin-3-yl)-2-methoxyethanamide]
< 100 nM	CCS(=O)(=O)N1CC=C(c2cnc(N)c(C(=O)Nc3n[nH]c4ccccc34)n2)CC1 [Compound I-169, 3-amino-6-(1-(ethylsulfonyl)-1,2,3,6-tetrahydropyridin-4-yl)-N-(1H-indazol-3-yl)pyrazine-2-carboxamide]
100 to 1000 nM	CCS(=O)(=O)N1CCN(c2cnc(N)c(-c3nc4ccccc4s3)n2)CC1 [Compound I-17, 3-(benzo[d]thiazol-2-yl)-5-(4-(ethylsulfonyl)piperazin-1-yl)pyrazin-2-amine]
100 to 1000 nM	CCS(=O)(=O)N1CC=C(c2cnc(N)c(C(=O)Nc3cc(C)nn3C)n2)CC1 [Compound I-168, 3-amino-N-(1,3-dimethyl-1H-pyrazol-5-yl)-6-(1-(ethylsulfonyl)-1,2,3,6-tetrahydropyridin-4-yl)pyrazine-2-carboxamide]
100 to 1000 nM	CNCc1ccc(-c2nnc(-c3nc(N4CCC(O)C4)cnc3N)o2)cc1 (centres unmarked) [Compound I-371, (35)-1-[5-Amino-6-[5-[4-(methylaminomethyl)phenyl]-1,3,4-oxadiazol-2-yl]pyrazin-2-yl]pyrrolidin-3-ol]
100 to 1000 nM	CCS(=O)(=O)N1CCN(c2cnc(N)c(-c3nc4ccccc4n3-c3ccccc3)n2)CC1 [Compound I-308, 5-(4-ethylsulfonylpiperazin-1-yl)-3-(1-phenylbenzimidazol-2-yl)pyrazin-2-amine]
100 to 1000 nM	NCCS(=O)(=O)N1CC=C(c2cnc(N)c(-c3nc4ccccc4[nH]3)n2)CC1 [Compound I-313, 5-(1-(2-Aminoethylsulfonyl)-1,2,3,6-tetrahydropyridin-4-yl)-3-(1H-benzo[d]imidazol-2-yl)pyrazin-2-amine]
100 to 1000 nM	CN1CCC(C(=O)N2CC=C(c3cnc(N)c(-c4nc5ccccc5[nH]4)n3)CC2)CC1 [Compound I-78, (4-(5-amino-6-(1H-benzo[d]imidazol-2-yl)pyrazin-2-yl)-5,6-dihydropyridin-1(2H)-yl)(1-methylpiperidin-4-yl)methanone]
100 to 1000 nM	Nc1ncc(N2CCN(C(=O)C3CCCCC3)CC2)nc1-c1nnc(-c2ccccc2)o1 [Compound I-251, (4-(5-amino-6-(5-phenyl-1,3,4-oxadiazol-2-yl)pyrazin-2-yl)piperazin-1-yl)(cyclohexyl)methanone]
< 100 nM	Nc1ncc(C2=CCN(C(=O)COc3ccccc3)CC2)nc1-c1nnc(-c2ccccc2)o1 [Compound I-126, 1-(4-(5-amino-6-(5-phenyl-1,3,4-oxadiazol-2-yl)pyrazin-2-yl)-5,6-dihydropyridin-1(2H)-yl)-2-phenoxyethanone]
1000 to 10000 nM	Cc1ccc2nc(-c3nc(N4CCC(C(F)(F)F)CC4)cnc3N)[nH]c2c1 [Compound I-31, 3-(6-methyl-1H-benzo[d]imidazol-2-yl)-5-(4-(trifluoromethyl)piperidin-1-yl)pyrazin-2-amine]
100 to 1000 nM	Nc1ncc(N2CCN(C(=O)N3CCCC3)CC2)nc1-c1nnc(-c2ccccc2)o1 [Compound I-223, (4-(5-amino-6-(5-phenyl-1,3,4-oxadiazol-2-yl)pyrazin-2-yl)piperazin-1-yl)(pyrrolidin-1-yl)methanone]
